Results reported in US4818748A, “Renin inhibitors and aminoacid and aminoaldehyde derivatives” (Bayer Aktiengesellschaft, priority 1986, dated 1989).

Assays:
[1] = molecular target: T1, endogenous resin from human plasma (Homo sapiens, UniProt P00797); test: In vitro test: inhibition of plasma renin activity (angiotensin I formation, radioimmunoassay); assay type: biochemical
T1 construct: endogenous resin from human plasma; from tissue; host or cells: pooled human plasma (EDTA)
T1 sequence (P00797 67-406): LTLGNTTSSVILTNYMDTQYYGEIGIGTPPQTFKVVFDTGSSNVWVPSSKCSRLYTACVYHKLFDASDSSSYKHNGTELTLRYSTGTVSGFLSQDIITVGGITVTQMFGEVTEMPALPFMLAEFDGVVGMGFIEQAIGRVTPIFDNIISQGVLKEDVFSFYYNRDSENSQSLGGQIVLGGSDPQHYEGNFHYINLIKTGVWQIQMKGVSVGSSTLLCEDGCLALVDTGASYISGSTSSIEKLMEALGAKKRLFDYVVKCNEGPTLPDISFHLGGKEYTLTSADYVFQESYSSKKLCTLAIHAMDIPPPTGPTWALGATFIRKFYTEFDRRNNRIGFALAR
Procedure: The inhibitory strength of the peptides according to the invention against endogenous resin from human plasma is determined in vitro. Pooled human plasma is obtained, with the addition of ethylenediaminetetraacetic acid (EDTA) as an anticoagulant and is stored at -20° C. The plasma renin activity (PRA) is determined as the rate of formation of angiotensin I from endogenous angiotensinogen and renin after incubation at 37° C. The reaction solution contains 150 μl of plasma, 3 μl of 6.6% strength 8-hydroxyquinoline sulphate solution, 3 μl of 10% strength dimercaprol solution and 144 μl of sodium phosphate buffer (0.2M; 0.1% of EDTA; pH 5.6) with or without the substances according to the invention in various concentrations. The angiotensin I formed per unit time is determined by radioimmunoassay (Sorin Biomedica, Italy). The percentage inhibition of the plasma renin activity is calculated by comparison of the amount of angiotensin I formed here with or without the substances according to the invention.

[2] = test system: sodium-deficient spontaneously hypertensive rats; test: Mean arterial pressure in anaesthetized sodium-deficient spontaneously hypertensive rats; assay type: in vivo, rat; details: intragastral administration; sodium-deficient SHR (furosemide in drinking water 14 days), anaesthetized with Inactin
[3] = test system: spontaneously hypertensive rats; test: In vivo test: systolic blood pressure of conscious spontaneously hypertensive rats, indirect tail-cuff measurement; set-up: species or system rat; details: conscious SHR; for systolic blood pressure: oral dose of 100 mg/kg
From the text: From the current state of the art, it was not to be expected that the compounds according to the invention have a hypotensive action when administered orally. […] [See Table 1].
The blood pressure of the conscious animals is thereby measured by the customary indirect measurement method on the tail, using an inflatable occlusion cuff and an infra-tone pulse recorder [compare H. Breuninger: Methoden zur unblutigen Messung des Blutdrucks an Kleintieren (Methods of bloodless measurement of the blood pressure on small animals), Arzneimittleforschung 6, 222-225 (1956)]. The substance is administered as a suspension in 1% strength Tylose by means of a stomach tube. The systolic blood pressure is measured before and 1, 2, 4 and 6 hours after administration.

Question: `CC[C@H](C)[C@H](NC(=O)C[C@H](O)[C@H](Cc1ccc([N+](=O)[O-])cc1)NC(=O)[C@H](Cc1c[nH]cn1)NC(=O)[C@H](Cc1ccccc1)NC(=O)OC(C)(C)C)C(=O)OC` [Example 12, N-tert.-Butoxycarbonyl-phenylalanyl-L-histidyl-4S-amino-3S-hydroxy-5-(4-nitrophenyl)pentanoyl-L-isoleucine methyl ester] was tested. Which “inhibition of renin activity in vitro (in words)” value [1] did it give?
Answer: inhibit the renin activity in vitro

Question: What about the “mean arterial pressure (in words)” value [2] of the same compound?
Answer: reduces the mean arterial pressure

Question: What about the systolic blood pressure ([3]; 0 hours (before administration)) of the same compound?
Answer: 165.0 mm Hg

Question: And the systolic blood pressure ([3]; 1 hour after administration)?
Answer: 163.1 mm Hg

Question: What about the systolic blood pressure ([3]; 2 hours after administration) of the same compound?
Answer: 161.8 mm Hg

Question: What about the systolic blood pressure ([3]; 4 hours after administration) of the same compound?
Answer: 151.8 mm Hg

Question: And the systolic blood pressure ([3]; 6 hours after administration)?
Answer: 148.5 mm Hg

Question: What about the “antihypertensive action (in words)” value ([3]; oral administration of 100 mg/kg) of the same compound?
Answer: antihypertensive action is observed
